Assay [1] has as its target T1, human mGlu5 (Homo sapiens, UniProt P41594). Briefly: Radioligand displacement assay (radiolabeled MPEP) on membranes of HEK293 cells stably expressing mGlu5. To be noted: for Inhibition at 30 µM: Table S1, radioligand displacement at 30 µM. (Loss of bound radioactivity is the signal in a displacement assay; it reports binding, not function.)
Procedure: Treated cells were harvested with PBS/2 mM EDTA and washed three times with ice-cold PBS and frozen at −80 °C. The frozen cell pellet was resuspended in membrane buffer (25 mM Tris/7.4, 250 mM sucrose, 2.5 mM EDTA, 2 ug/ml aprotinin, 0.5 ug/ml leupeptin and 200 nM PMSF) and homogenized with a polytron 20–30 s at maximum power. After centrifugation at 18,000 RPM for 30 min at 4 °C, the pellet was resuspended in ice-cold membrane buffer, hand-homogenized, and centrifuged as described above. This pellet was further resuspended in ice-cold membrane buffer. The protein content was measured using the Bradford method with bovine serum albumin as the standard. The membrane homogenate was frozen at −80 °C before use. After thawing, the membranes were washed once and resuspended in ice-cold 50 mM Tris–HCl, 0.9% NaCl, pH 7.4 buffer. All incubations were performed at room temperature. For the displacement binding experiments, 15 μg of membranes were incubated with 5 nM the radioligand in the presence of 10 varying concentrations of the test compound for 2 h at room temperature with shaking. At the end of the respective incubations, the suspension was filtered onto PerkinElmer GF/C glass fiber filters (1450–421) pre-soaked in 0.5% polyethyleneimine and washed rapidly four times using a Tomtec Harvester 96 Mach III cell harvester (Tomtec, Hamden, CT) with 5 mL of cold wash buffer (50 mM Tris–HCl, pH 7.4). The radioactivity trapped on the filters was measured after heat sealing the filters with MeltiLexTM A (PerkinElmer, 1450–441) in a 1450 MicroBeta TriLux counter (PerkinElmer). […] IC50 values were derived from the inhibition curve, and Ki values were calculated according to the Cheng-Prusoff equation of Ki = IC50/(1 + [L]/Kd),[61] where [L] is the concentration of radioligand and Kd is its dissociation constant at the receptor, derived from the saturation isotherm.
Assay [2] has as its target T1, human mGlu5. Briefly: IP1 functional assay, quisqualate-stimulated HEK293 cells expressing mGlu5. It counts as cell-based. Also noted: expressed in transfected cells; host or cells: HEK293 cells, transient electroporation; glutamate transporter EAAC1 co-transfected. To be noted: for functional activity in IP1 assay: agonist (quisqualate)-induced mGlu5-dependent IP1 production. The procedure: Figure 3 Evaluation of compounds F1 and F2 in functional assays. Representative dose–response curve of compounds (a) F1 and (b) F2 in an IP1 functional assay. […] Each point was performed in triplicate and is shown as a mean ± SEM of 3–5 independent experiments.
HEK293 cells were cultured in Dulbecco’s modified Eagle’s medium (DMEM) supplemented with 10% fetal bovine serum (FBS) and were maintained at 37 °C in a humidified atmosphere with 5% CO2. Transient transfection was performed using electroporation in a volume of […] with […] of plasmid encoding SNAP-tag human mGlu5, […] plasmid encoding for the glutamate transporter EAAC1 plasmids, and 10 million of HEK293 cells in electroporation buffer (50 mM K2HPO4, 20 mM CH3COOK, and 20 mM KOH, pH 7.4). After electroporation (250 V, 0.5 mF, Bio–Rad Gene Pulser electroporator; Bio-Rad Laboratories, Hercules, CA), cells were resuspended in 10 mL of DMEM supplemented with 10% FBS and seeded for 24 h into black, clear-bottom 96-well culture plates (Greiner Bio-one), pretreated with Poly-L-Ornithine 1X, at a density of 100,000 cells per well. Following 24 h of transfection, HEK293 cells were incubated for 2 h with glutamate-free DMEM GlutaMAX-I (Life Technologies). The IP1 accumulation assay kit (Cisbio Bioassays, PerkinElmer) was used for the direct quantitative measurement of IP1. Cells were stimulated by quisqualate at EC80 alone and with various concentrations of allosteric compounds, incubated for 30 min at 37 °C, 5% CO2. Cells were then lysed using the conjugate-lysis buffer mixed with the d2-labeled IP1 analogue and the Lumi4-terbium cryptate-labeled anti-IP1 antibody according to the manufacturer’s instructions. After a 1 h incubation at room temperature, the HTRF measurement was performed after excitation at 337 nm with 50 μs delay. Terbium cryptate fluorescence and tr-FRET signals were measured at 620 and 665 nm, respectively, using a PheraStar fluorimeter (BMG Labtech).

The mark [3] stands for this setting: radioligand displacement, mean ± SEM of two experiments.
Where [4] appears, read: quisqualate 50 nM, mean ± SEM of 3–5 independent experiments, read-out: pIC50 (converted).
Where [5] appears, read: analogues of F1, read-out: IC50.

Molecules are shown by their SMILES. Like-named read-outs stand apart in the source and are kept apart here. Bounds are passed on as bounds.

T1 sequence (P41594 21-1212): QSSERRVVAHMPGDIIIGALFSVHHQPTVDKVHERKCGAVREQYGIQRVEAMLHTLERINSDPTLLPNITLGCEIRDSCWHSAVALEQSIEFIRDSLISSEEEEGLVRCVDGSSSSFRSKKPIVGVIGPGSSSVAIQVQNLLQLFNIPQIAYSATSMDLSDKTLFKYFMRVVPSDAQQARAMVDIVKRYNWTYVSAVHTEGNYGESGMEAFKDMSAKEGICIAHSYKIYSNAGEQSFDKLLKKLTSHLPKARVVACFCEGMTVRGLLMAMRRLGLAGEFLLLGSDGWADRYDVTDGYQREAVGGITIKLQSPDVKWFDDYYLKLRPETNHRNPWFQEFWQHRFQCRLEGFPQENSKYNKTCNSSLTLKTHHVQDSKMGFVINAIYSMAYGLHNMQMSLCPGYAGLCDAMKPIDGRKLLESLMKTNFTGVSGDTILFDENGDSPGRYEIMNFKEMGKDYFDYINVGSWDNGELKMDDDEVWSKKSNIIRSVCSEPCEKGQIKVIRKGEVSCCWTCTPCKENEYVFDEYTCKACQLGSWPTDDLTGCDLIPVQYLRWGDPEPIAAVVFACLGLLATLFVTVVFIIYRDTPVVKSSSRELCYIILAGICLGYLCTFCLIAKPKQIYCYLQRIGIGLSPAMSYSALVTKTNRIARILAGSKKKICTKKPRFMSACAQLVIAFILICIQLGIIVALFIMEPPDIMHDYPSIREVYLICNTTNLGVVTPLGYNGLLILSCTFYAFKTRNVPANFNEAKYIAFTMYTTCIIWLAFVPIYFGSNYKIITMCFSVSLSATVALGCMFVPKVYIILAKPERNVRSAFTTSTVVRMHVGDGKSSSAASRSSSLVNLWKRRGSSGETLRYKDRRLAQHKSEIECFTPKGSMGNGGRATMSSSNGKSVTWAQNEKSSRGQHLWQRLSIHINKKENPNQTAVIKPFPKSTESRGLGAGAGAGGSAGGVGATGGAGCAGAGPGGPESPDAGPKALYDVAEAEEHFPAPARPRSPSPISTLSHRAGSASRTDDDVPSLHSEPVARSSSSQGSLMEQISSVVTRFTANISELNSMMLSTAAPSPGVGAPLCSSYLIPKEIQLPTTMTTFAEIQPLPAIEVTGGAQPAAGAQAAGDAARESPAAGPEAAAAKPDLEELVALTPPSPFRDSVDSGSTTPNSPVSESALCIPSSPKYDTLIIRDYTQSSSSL

On to `COCc1cccc(/C=C/c2cccc(C)n2)c1` [F2], for which the Ki on human mGlu5 [1] (setting [3]) is 0.92 ± 0.12 µM; at human mGlu5 [1] (resynthesized pure sample of F2, new binding assays), 0.55 µM. In addition, the “functional activity in IP1 assay” value at human mGlu5 [2] is reported as “acted as NAMs”. Further, on human mGlu5 [2] (setting [4]), the IC50 is 7.94 µM.
As for `COc1cccc(CNc2cccc(C#N)c2)c1` [F1], the Ki at human mGlu5 [1] (setting [3]) was determined as 0.43 ± 0.01 µM. Besides, the “functional activity in IP1 assay” value at human mGlu5 [2] was “acted as NAMs”. Moreover, the IC50 on human mGlu5 [2] (setting [4]) was 6.31 µM.
Regarding `N#Cc1cccc(NCc2ccccc2)c1` [FA1], at human mGlu5 [2], the “functional activity in IP1 assay” value is “inactive”. Also, the IC50 on human mGlu5 [2] (setting [5]) was above 100 µM.
At human mGlu5 [1] (setting [3]), `Cn1c(SCc2noc(-c3ccoc3)n2)nnc1-c1ccco1` [L2] came in with a Ki of 1.1 ± 0.1 µM. The “functional activity in IP1 assay” value at human mGlu5 [2] is reported as “negatively modulated”.
With `COc1cccc(CNc2ccccc2)c1` [FA2], the “functional activity in IP1 assay” value on human mGlu5 [2] was “inactive”. In addition, on human mGlu5 [2] (setting [5]), the IC50 was above 100 µM.
Molecule `Cc1cnn(CC2CCCCN2C(=O)c2cc(-c3ccco3)on2)c1` (centres unmarked) [L1] registered a Ki at human mGlu5 [1] (setting [3]) of 0.99 ± 0.15 µM. Also, the “functional activity in IP1 assay” value on human mGlu5 [2] is “negatively modulated”.
Regarding `c1ccc(OCc2noc(NCc3nc4ccccc4s3)n2)cc1` [L43], the “Inhibition at 30 µM” value on human mGlu5 [1] (mean ± SEM of two experiments) amounted to 26 ± 12%.
The same measure, in the same setting: next, `COCc1ccc(CNc2ncccc2F)cc1` [F57]: 17 ± 3%; `COc1ccc(CNC(=O)c2csnn2)cc1` [F25]: 28 ± 9%; `CC(=O)c1cccc(NCc2ccccc2)c1` [F9]: 38 ± 1%.
Same read-out and setting: next, `N#Cc1ccnc(Nc2ccc3c(c2)OCO3)c1` [F30]: 27 ± 3%.
Same read-out and setting: then `CCC(NC(=O)c1ccccn1)c1ccccc1` (centres unmarked) [F52], with 19 ± 5%; and `CCN(Cc1nc(-c2ccncc2)no1)c1ccccc1` [L52], with 20 ± 1%.
`CCOc1ccc(C(=O)N2CC(OCc3ccc(F)cc3)C2)cc1` [L58]: on human mGlu5 [1] (mean ± SEM of two experiments), the “Inhibition at 30 µM” value worked out at 16 ± 2%.
Still for that read-out and setting: next, `CN(Cc1cnn(-c2ccccc2)c1)C(=O)c1cc(-c2ccco2)on1` [L20]: 34 ± 5%; `CC(C)c1nccn1Cc1nc2ccccc2[nH]1` [F16]: 33 ± 5%; `Clc1cccc(OCCCn2ccnc2)c1` [F56]: 18 ± 4%.

As a reminder, the Ki is the dissociation constant of the complex between target and ligand, obtained from inhibition or displacement. Usually Inhibition stands for the percentage by which the read-out fell short of the control.

(Values after article PMC9594040, “Structure-Based Discovery of Negative Allosteric Modulators of the Metabotropic Glutamate Receptor 5” (ACS Chemical Biology, 2022).)
